Values quoted from earlier work in patent US20040202731A1, “Rosmarinic acid composition” (priority 2003, published 2004).

Legend:
[1] = in vivo
human PMNL = details: concentrations of 10^-5 to 10^-3 M
rat liver microsomes = details: concentration of 25 μg/ml

SMILES	stability (turns to camphor with oxidation)	absorption from the gastrointestinal tract and from the skin [1]	formation of 5-HETE from human PMNL (human PMNL)	formation of LTB4 from human PMNL (human PMNL)	endotoxin-induced activation of complement and concomitant formation of prostacyclin (complement)	inhibition of lipid peroxidation of rat liver microsomes (rat liver microsomes) [%]
CC1(C)C2CCC1(C)C(O)C2 (stereo not drawn) [Borneol, endo-1,7,7-trimethyl-bicyclo[2.2.1]heptan-2-ol]	highly unstable					
O=C(/C=C/c1ccc(O)c(O)c1)O[C@H](Cc1ccc(O)c(O)c1)C(=O)O [Rosmarinic acid]		well absorbed	inhibited	inhibited	suppresses	90
